# Where “and” joins values, the source holds several entries; their conditions need not be identical. Identical values can stand only once. Like-named read-outs stand apart in the source and are kept apart here.
# Experiments:
# [1] = preclinical in vitro and in vivo screens; cited from earlier work
# [2] = male rats, 50 mg/kg for 14 days; cited from earlier work
# HCMV TB40/E strain = experiment: Plaque reduction assay, HCMV TB40/E strain in human foreskin fibroblasts, single drugs and 2-drug combinations (Chou-Talalay); format: cell-based, human cytomegalovirus; details: for Dose of drug alone at Fa 0.9: Fa 0.9, drug alone; for EC50: Human betaherpesvirus 5, Fibroblast
# Description: The CMV strain used was TB40/E. The CMV strain was propagated and tittered in human foreskin fibroblasts (HFF) cells. Cell-free virus stocks and cell-associated clinical isolates were maintained at -70° C. Viral stocks were tittered by serial 10-fold dilution in 24-well tissue culture plates containing HFF monolayers overlaid with agarose-medium. After incubation for 7 to 14 days, plaques were enumerated, and virus titer was determined as plaque forming units (PFU) per milliliter (ml). Stocks of artemisone (10 mM), ganciclovir (10 mM), BDCRB (120 mM), brincidofovir (1 mM), maribavir (10 mM) and letermovir (10 mM) were prepared in DMSO or H2O.
# Cell monolayers were inoculated in 24-well culture plates with 0.2 ml of virus suspension containing 60 to 100 PFU per well. After adsorption for 60 -120 min at 37° C., the inoculum was removed, and culture medium was replaced with agarose-medium overlay containing serial concentrations of the tested drug(s). Plates were incubated for 7-14 days at 37° C. in a 5% CO2 incubator. Plaques were then counted microscopically.
# The effect of a combination of artemisone with each one of ganciclovir (HCMV DNA polymerase), BDCRB (HCMV terminase inhibitor), brincidofovir (HCMV DNA polymerase inhibitor), maribavir (HCMV UL97 kinase inhibitor) and letermovir (HCMV terminase inhibitor) was evaluated by the classical plaque reduction assay. The in vitro activity of each of the above mentioned antiviral compounds alone or in combination with artemisone was evaluated by the classical plaque reduction assay, using HCMV TB40/E strain in human foreskin fibroblasts cells. The concentration of each antiviral compound that reduced the plaque formation by 50% (EC50) was determined as previously described in Wolf DG et al., J Clin Invest. 1995;95:257-63. The individual EC50 values in human foreskin fibroblasts were as follows: artemisone EC50 - 1 µM; ganciclovir EC50 - 1 µM; maribavir EC50 - 1 µM; BDCRB EC50 - 0.5 µM; letermovir EC50 - 5 nM; brincidofovir EC50 -1 nM.
# For the 2-drug combination studies, the EC50 value of each drug was used to determine an equipotent ratio between the two compounds (EC50 of drug 1 / EC50 of drug 2). Serial 2-fold dilutions of a mixture comprising artemisone and another antiviral compound at initial concentrations equivalent to 4-fold the equipotent ratio were added to duplicate wells of cells infected with HCMV. Overall, 5 different concentrations of the drug combinations were used: 4xEC50, 2xEC50, 1xEC50,0.5xEC50,0.25xEC50. The cell monolayers were inoculated in 24-well culture plates with 0.2 ml of virus suspension containing 60 to 100 plaque-forming unit (PFU) per well; the Multiplicity of infection (MOI) was 0.001-0.002 PFU/cell).
# D1 and D2 are the doses of the two drugs, and Dx is a dose causing to x% effect (LD0.5 is EC50). Briefly, the software extrapolated a combination index (CI) representing the interaction between the two drugs at specified levels of virus inhibition (that is 50%, 75%, 90%, 95%) versus the percentages of the inhibition induced by each drug alone and in combination (equation 16 in Chou).
# A weighted average CI (CIwt) was then calculated for each combination as (CI50+ 2×CI75+3×CI90+4×CI95)/10, to access the drug combinatory effects.
# The dose reduction index (DRI) was then calculated as described in Chou. In general, the DRI measures the fold of dose reduction of each drug in the combination at a given effect level compared with the doses of each drug alone. For each one of the below tables: Fa - fraction of virus affected; doses are provided in µm.
compound,measurement,setting,value
CC1CCC2[C@@H](C)[C@H](N3CCS(=O)(=O)CC3)OC3O[C@]4(C)CCC1C32OO4 (stereo in doubt) [artemisone],Neurotoxicity,[1],does not elicit neurotoxicity
same,Tolerability,[2],no effect as compared to controls
same,Dose of drug alone at Fa 0.75,"HCMV TB40/E strain; Fa 0.75, drug alone, listed as Art",2.189 µm and 2.23 µm and 3.071 µm
same,Dose of drug alone at Fa 0.9,HCMV TB40/E strain,7.66 µm
same,Dose of drug alone at Fa 0.9,HCMV TB40/E strain; listed as Art,7.658 µm and 7.87 µm and 8.905 µm
same,Dose of drug alone at Fa 0.95,"HCMV TB40/E strain; Fa 0.95, drug alone, listed as Art",17.9447 µm and 18.59 µm and 18.3723 µm
same,Dose of drug alone at Fa 0.97,"HCMV TB40/E strain; Fa 0.97, drug alone, listed as Art",32.8918 µm and 34.26 µm and 30.7567 µm
same,EC50,"HCMV TB40/E strain; Fa 0.5, drug alone, read-out: Dose of drug alone at Fa 0.5",626 nM
same,EC50,"HCMV TB40/E strain; drug alone, human foreskin fibroblasts, read-out: EC50 (concentration that reduced the plaque formation by 50%)",1000 nM
same,DRI (dose reduction index),"HCMV TB40/E strain; combination artemisone + brincidofovir, Fa 0.05",0.16
same,DRI (dose reduction index),"HCMV TB40/E strain; combination artemisone + brincidofovir, Fa 0.5",1.44
same,DRI (dose reduction index),"HCMV TB40/E strain; combination artemisone + brincidofovir, Fa 0.75",3.24
same,DRI (dose reduction index),"HCMV TB40/E strain; combination artemisone + brincidofovir, Fa 0.9",up to 7
same,DRI (dose reduction index),"HCMV TB40/E strain; combination artemisone + brincidofovir, Fa 0.9, listed as Art",7.28
same,DRI (dose reduction index),"HCMV TB40/E strain; combination artemisone + brincidofovir, Fa 0.95",12.65
same,DRI (dose reduction index),"HCMV TB40/E strain; combination artemisone + brincidofovir, Fa 0.97",18.74
same,DRI (dose reduction index),"HCMV TB40/E strain; combination artemisone + cidofovir, Fa 0.05",0.3256
same,DRI (dose reduction index),"HCMV TB40/E strain; combination artemisone + cidofovir, Fa 0.5",2.047
same,DRI (dose reduction index),"HCMV TB40/E strain; combination artemisone + cidofovir, Fa 0.75",4.066
same,DRI (dose reduction index),"HCMV TB40/E strain; combination artemisone + cidofovir, Fa 0.9",8.07
same,DRI (dose reduction index),"HCMV TB40/E strain; combination artemisone + cidofovir, Fa 0.9, listed as Art",8.075
same,DRI (dose reduction index),"HCMV TB40/E strain; combination artemisone + cidofovir, Fa 0.95",12.8761
same,DRI (dose reduction index),"HCMV TB40/E strain; combination artemisone + cidofovir, Fa 0.97",up to 17.9
same,DRI (dose reduction index),"HCMV TB40/E strain; combination artemisone + cidofovir, Fa 0.97, listed as Art",17.9464
same,DRI (dose reduction index),"HCMV TB40/E strain; combination artemisone + ganciclovir, Fa 0.05",0.2822
same,DRI (dose reduction index),"HCMV TB40/E strain; combination artemisone + ganciclovir, Fa 0.5",1.792
same,DRI (dose reduction index),"HCMV TB40/E strain; combination artemisone + ganciclovir, Fa 0.75",3.573
same,DRI (dose reduction index),"HCMV TB40/E strain; combination artemisone + ganciclovir, Fa 0.9, listed as Art",7.123
same,DRI (dose reduction index),"HCMV TB40/E strain; combination artemisone + ganciclovir, Fa 0.95",11.39
same,DRI (dose reduction index),"HCMV TB40/E strain; combination artemisone + ganciclovir, Fa 0.95, listed as Art",11.3872
same,DRI (dose reduction index),"HCMV TB40/E strain; combination artemisone + ganciclovir, Fa 0.97",15.9002
same,DRI (dose reduction index),"HCMV TB40/E strain; combination artemisone + letermovir, Fa 0.05",0.2276
same,DRI (dose reduction index),"HCMV TB40/E strain; combination artemisone + letermovir, Fa 0.5",1.624
same,DRI (dose reduction index),"HCMV TB40/E strain; combination artemisone + letermovir, Fa 0.75",3.38
same,DRI (dose reduction index),"HCMV TB40/E strain; combination artemisone + letermovir, Fa 0.9",7.04
same,DRI (dose reduction index),"HCMV TB40/E strain; combination artemisone + letermovir, Fa 0.9, listed as Art",7.037
same,DRI (dose reduction index),"HCMV TB40/E strain; combination artemisone + letermovir, Fa 0.95",11.5866
same,DRI (dose reduction index),"HCMV TB40/E strain; combination artemisone + letermovir, Fa 0.97",up to 16
same,DRI (dose reduction index),"HCMV TB40/E strain; combination artemisone + letermovir, Fa 0.97, listed as Art",16.5217
same,DRI (dose reduction index),"HCMV TB40/E strain; combination artemisone + maribavir, Fa 0.05",7.032
same,DRI (dose reduction index),"HCMV TB40/E strain; combination artemisone + maribavir, Fa 0.5",15.7458
same,DRI (dose reduction index),"HCMV TB40/E strain; combination artemisone + maribavir, Fa 0.75",21.2706
same,DRI (dose reduction index),"HCMV TB40/E strain; combination artemisone + maribavir, Fa 0.9",28.7
same,DRI (dose reduction index),"HCMV TB40/E strain; combination artemisone + maribavir, Fa 0.9, listed as Art",28.7339
same,DRI (dose reduction index),"HCMV TB40/E strain; combination artemisone + maribavir, Fa 0.95",35.2558
same,DRI (dose reduction index),"HCMV TB40/E strain; combination artemisone + maribavir, Fa 0.97",40.8
same,DRI (dose reduction index),"HCMV TB40/E strain; combination artemisone + maribavir, Fa 0.97, listed as Art",40.7793

# — patent publication US20230149418A1, “METHODS AND SYNERGIC COMPOSITIONS FOR TREATING VIRAL INFECTIONS” (HADASIT MEDICAL RESEARCH SERVICES AND DEVELOPMENT LTD., priority 2018, published 2023)
